Results reported in patent US12441708B2, “Cereblon ligands and bifunctional compounds comprising the same” (Arvinas Operations, Inc., priority 2017, dated 2025).

Legend:
Assay type in all cases: cell-based
[1] = biological target: T1, estrogen receptor-alpha (ERα) (Homo sapiens (Human), UniProt P03372); assay: Estrogen receptor-alpha (ERα) degradation assay in T47D cells; settings: % degraded, 5 day incubation, read-out: ER Degradation Dmax
estrogen receptor = assay: ERE luciferase assay in T47D-KBluc cells; settings: Homo sapiens, 24 hours, read-out: ER Target Engagement IC50
Experimental: 1. ERE Luciferase Assay for Compounds in Table 2
T47D-1(Bluc cells (ATCC® ECRL 2 65, T47D human breast cancer cells stably transfected with estrogen responsive element/promoter/luciferase reporter gene) were seeded into 96-well white opaque plates in IR: PM growth medium supplemented with 10% fetal bovine serum (FBS) and allowed to adhere overnight in a 37° C. humidified incubator. The following day, cells were treated with PROTACs in a 12-point concentration curve (top final concentration of 300 nM with subsequent concentrations being 3-fold less with […] being the lowest concentration in the assay). Each PROTAC was tested independently in two experiments on 96-well plates. After 24 hours, media was removed and lysis buffer was added to the wells. Following lysis, Bright-Glo™ Luciferase Assay Substrate (Promega, Madison WI) was added and the luciferase activity was measured using a Cytation 3 plate reader (BioTek™, Winooski, VT). Each compound was assayed in duplicate and the activity was calculated as […] using GraphPad Prism software (San Diego, CA).

[2] = biological target: T1, estrogen receptor-alpha (ERα); assay: Estrogen receptor-alpha (ERα) degradation assay in MCF7 cells (In-Cell Western / western blot); settings: % degraded, read-out: ER Degradation Dmax
Experimental: 2. Estrogen Receptor-Alpha (ERα) Degradation Assay in MCF-7 Cells Using Western Blot Method for Table 5
The exemplary novel ERα degraders were assessed for their activity in degrading ERα in MCF-7 cells via western blot. The assay was carried out in the presence of 10% FBS or high percentage of human or mouse serum. Protocols of the western blot assay are described below.
MCF7 cells were grown in DMEM/F12 with 10% FBS and seeded at 24,000 cells per well in 100 μl into 96-well clear tissue culture plates. The following day, the cells were treated with PROTACs in a […] concentration curve with 100 nM being the top concentration and serial dilutions to make the other concentrations (30 nM, 10 nM. 3 nM, 1 nM, and 0.3 nM). At all concentrations, 0.01% DMSO is the final concentration in the well. The following day, the plates are aspirated, washed with 50 μl of cold PBS. The cells are lysed with 50 μl/well 4° C. Cell Lysis Buffer (Catalog #9803; Cell Signaling Technology, Danvers, MA) (20 mM Tris-HCL (pH 7.5), 150 mM NaCl, 1 mM Na2EDTA, 1 mM EGTA, 1% Triton, 2.5 mM sodium pyrophosphate, 1 mM B-glycerophosphate, 1 mM sodium vanadate, 1 μg/ml leupeptin). Lysates were clarified at 16,000× g for 10 minutes, and 2 μg of protein was subjected to SDS-PAGE analysis and followed by immunoblotting according to standard protocols. The antibodies used were ERα (Cell Signaling, Technologies Catalog #8644), and Tubulin (Sigma Catalog #T9026; St. Louis, MO). Detection reagents were Clarity Western ECL substrate (Bio-Rad Catalog 4170-5060; Hercules, CA).
Alternatively, MCF7 cells were grown in DMEM/F12 with 10% FBS and seeded at 24,000 cells per well in 500 μl in 24-well clear tissue culture plates. The following day, the cells were treated with PROTACs in a 5-point concentration curve (100 nM, 33 nM, 11 nM, 3.7 nM, and 1.2 nM) in the presence of 0.01% DMSO. After 72 hours, the wells are aspirated and washed with 500 μl of PBS. The cells are lysed with 100 μl/well 4° C. Cell Lysis Buffer (Catalog #9803; Cell Signaling Technology, Danvers, MA) (20 mM Tris-HCL (pH 7.5), 150 mM NaCl, 1 mM Na2EDTA, 1 mM EGTA, 1% Triton, 2.5 mM sodium pyrophosphate, 1 mM B-glycerophosphate, 1 mM sodium vanadate, 1 ug/ml leupeptin). Lysates were clarified at 16,000× g for 10 minutes, and 2 μg of protein was subjected to SDS-PAGE analysis and followed by immunoblotting according to standard protocols. The antibodies used were ERα (Cell Signaling Technologies Catalog #8644), and Tubulin (Sigma Catalog #T9026; St. Louis, MO). Detection reagents were Clarity Western ECL substrate (Bio-Rad Catalog 4170-5060; Hercules, CA).
3. Estrogen receptor-alpha (ERα) degradation assay using In-Cell Western™ Assay for Table 5
Degradation of ERα by claimed compounds were determined in MCF7 cells using an In-Cell Western™ assay. Briefly, MCF7 cells were plated in 96-well plates (2000 cells per well in 100 μl media) and incubated at 37° C. under an atmosphere of 5% CO2 in a humidified incubator overnight. One-hundred (100) μl of media containing test compound (at 2× concentration) was added to the appropriate wells to provide 11 serially decreasing concentrations (top final concentration, 1 μM then 3-fold less for the next 10 concentrations); a vehicle control (DMSO) was also added for each compound. For each experiment, all compounds were assayed in duplicate plates. Cells were then incubated for 3 or 5 days in the above-mentioned environment. The assay was terminated by removal of media, a single wash with ice-cold PBS and the addition of […] paraformaldehyde (PFA: 4% in PBS). After 15 minutes in PFA at room temperature, the cells were permeabilized in Tris-phosphate-buffered saline with Tween (0.1%) (TBST) supplemented with Triton X-100 (0.5%) for 15 minutes. Cells were then blocked in BSA (TBST with BSA, 3%) for one hour. […] The cells were incubated overnight at 4° C. […]

T1 sequence (P03372 whole entry): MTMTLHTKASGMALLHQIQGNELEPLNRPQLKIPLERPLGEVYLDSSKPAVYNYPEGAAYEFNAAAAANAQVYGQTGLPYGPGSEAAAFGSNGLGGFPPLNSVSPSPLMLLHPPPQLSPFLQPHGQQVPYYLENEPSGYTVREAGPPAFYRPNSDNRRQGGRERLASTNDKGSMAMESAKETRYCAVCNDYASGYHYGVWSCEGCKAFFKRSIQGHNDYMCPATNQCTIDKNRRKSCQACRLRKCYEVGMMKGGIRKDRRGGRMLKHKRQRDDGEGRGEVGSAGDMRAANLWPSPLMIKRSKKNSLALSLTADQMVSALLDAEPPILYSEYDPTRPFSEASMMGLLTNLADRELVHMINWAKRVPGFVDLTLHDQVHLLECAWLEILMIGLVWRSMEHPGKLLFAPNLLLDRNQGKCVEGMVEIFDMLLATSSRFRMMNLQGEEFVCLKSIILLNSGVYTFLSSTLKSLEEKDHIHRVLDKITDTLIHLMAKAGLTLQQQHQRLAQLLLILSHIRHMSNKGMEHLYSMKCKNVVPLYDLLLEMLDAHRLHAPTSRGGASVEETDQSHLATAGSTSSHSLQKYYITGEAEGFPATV

Row | Structure (SMILES) | Dmax [1] [%] | IC50 (estrogen receptor) [µM] | Dmax ([2]; 5 day incubation) [%] | Dmax ([2]; 3 day incubation) [%]
1 | CCN(C(=O)c1ccc(N2CCN(CCCCCOc3ccc([C@@H]4c5ccc(O)cc5CC[C@@H]4c4ccccc4)cc3)CC2)cc1OC)C1CCC(=O)NC1=O (mixture of isomers) [PROTAC-92, rac-N-(2,6-dioxopiperidin-3-yl)-N-ethyl-4-(4-(5-(4-((1R,2S)-6-hydroxy-2-phenyl-1,2,3,4-tetrahydronaphthalen-1-yl)phenoxy)pentyl)piperazin-1-yl)-2-methoxybenzamide] | ≤ 50 | – | – | –
2 | O=C1CCC(N2CC(Oc3cccc(C4CCN(CCCCOc5ccc([C@@H]6c7ccc(O)cc7CC[C@@H]6c6ccccc6)cc5)CC4)c3)=CC2=O)C(=O)N1 (mixture of isomers) [PROTAC-104, rac-3-(4-(3-(1-(4-(4-((1R,2S)-6-hydroxy-2-phenyl-1,2,3,4-tetrahydronaphthalen-1-yl)phenoxy)butyl)piperidin-4-yl)phenoxy)-2-oxo-2,5-dihydro-1H-pyrrol-1-yl)piperidine-2,6-dione] | ≤ 50 | 0.001 to 0.01 | – | –
3 | O=C1CCC(N2CC(Oc3cccc(C4CCN(CCCOc5ccc([C@H]6c7ccc(O)cc7CC[C@H]6c6ccccc6)cc5)CC4)c3)=CC2=O)C(=O)N1 (mixture of isomers) [PROTAC-105, rac-3-(4-(3-(1-(3-(4-((1R,2S)-6-hydroxy-2-phenyl-1,2,3,4-tetrahydronaphthalen-1-yl)phenoxy)propyl)piperidin-4-yl)phenoxy)-2-oxo-2,5-dihydro-1H-pyrrol-1-yl)piperidine-2,6-dione] | ≤ 50 | 0.001 to 0.01 | – | –
4 | O=C1CCC(N2CC(Oc3cccc(C4CCN(CCCCOc5ccc([C@H]6c7ccc(O)cc7CC[C@H]6c6ccccc6)cc5)CC4)c3)=CC2=O)C(=O)N1 (mixture of isomers) [PROTAC-109, rac-3-(4-(3-(1-(4-(4-((1R,2S)-6-hydroxy-2-phenyl-1,2,3,4-tetrahydronaphthalen-1-yl)phenoxy)butyl)piperidin-4-yl)phenoxy)-2-oxo-2,5-dihydro-1H-pyrrol-1-yl)piperidine-2,6-dione] | ≤ 50 | ≥ 0.1 | – | –
5 | O=C1CCC(N2CC(c3ccc(N4CCN(CC5CCN(c6ccc([C@@H]7c8ccc(O)cc8CC[C@@H]7c7ccccc7)cc6)CC5)CC4)cc3)=CC2=O)C(=O)N1 (stereo partly drawn) [PROTAC-89, 3-[3-[4-[4-[[1-[4-[(1R,2S)-6-hydroxy-2-phenyl-tetralin-1-yl]phenyl]-4-piperidyl]methyl]piperazin-1-yl]phenyl]-5-oxo-2H-pyrrol-1-yl]piperidine-2,6-dione] | – | 0.001 to 0.01 | > 75 | –
6 | O=C1CCC(n2ncc(N3CCN(CC4CCN(c5ccc([C@@H]6c7ccc(O)cc7CC[C@@H]6c6ccccc6)cc5)CC4)CC3)cc2=O)C(=O)N1 (stereo partly drawn) [PROTAC-102, 3-[4-[4-[[1-[4-[(1R, 2 S)-6-hydroxy-2-phenyl-tetralin-1-yl]phenyl]-4-piperidyl]methyl]piperazin-1-yl]-6-oxo-pyridazin-1-yl]piperidine-2,6-dione] | – | 0.001 to 0.01 | > 75 | –
7 | O=C1CCC(n2ncc(Oc3ccc(O[C@@H]4CCN(CCOc5ccc([C@@H]6c7ccc(O)cc7CC[C@@H]6c6ccc(F)cc6)cc5)C4)nc3)cc2=O)C(=O)N1 (stereo partly drawn) [PROTAC-103, 3-(4-((6-(((R)-1-(2-(4-((1R,2S)-2-(4-fluorophenyl)-6-hydroxy-1,2,3,4-tetrahydronaphthalen-1-yl)phenoxy)ethyl)pyrrolidin-3-yl)oxy)pyridin-3-yl)oxy)-6-oxopyridazin-1(6H)-yl)piperidine-2,6-dione] | – | < 0.001 | – | ≤ 50
8 | Cc1nc2c(NCCN3CCN(CCOc4ccc(Oc5c(-c6ccc(Br)cc6)sc6cc(O)ccc56)cc4)CC3)cccc2c(=O)n1C1CCC(=O)NC1=O (centres unmarked) [PROTAC-107] | – | 0.01 to 0.1 | – | ≤ 50
9 | Cc1nc2c(OCCN3CCN(CCOc4ccc(Oc5c(-c6ccc(Br)cc6)sc6cc(O)ccc56)cc4)CC3)cccc2c(=O)n1C1CCC(=O)NC1=O (centres unmarked) [PROTAC-108, 3-(8-(2-(4-(2-(4-((2-(4-bromophenyl)-6-hydroxybenzo[b]thiophen-3-yl)oxy)phenoxy)ethyl)piperazin-1-yl)ethoxy)-2-methyl-4-oxoquinazolin-3(4H)-yl)piperidine-2,6-dione] | – | 0.001 to 0.01 | – | ≤ 50
